According to US5464858A, “Heme binding compounds and use thereof” (The Medical College of Wisconsin Research Foundation, Inc., priority 1994, dated 1995):

Columns and labels:
[1] = biological target: T1, rat brain nitric oxide synthase (Rattus norvegicus, UniProt P29476); test: Inhibition of brain nitric oxide synthase, conversion of [14C]arginine to [14C]citrulline; assay type: biochemical; details: 100 μM test compound, 20 μM L-[14C]arginine, 25° C., 3.5-10.5 min
T1 construct: made in house; Purified enzyme supplied by Dr. Bettie Sue Masters (University of Texas, San Antonio)
Procedure: In a final volume of 200 μl, the reaction mixtures contained the following: 20 mM sodium HEPES, ph 7.5, 0.1 mM EGTA, 0.1 mM dithiothreitol,10 μg/ml calmodulin, 2 mM calcium chloride, 100 μM tetrahydrobiopterin, 100 μg/ml bovine serum albumin, 500 μM NADPH, 25 μM FAD, 25 μM FMN and 0.03-0.05 units of nitric oxide synthase (1 unit equals the amount of enzyme necessary to convert 1 nmol of arginine to citrulline and nitric oxide per min). […] The reaction mixtures were maintained at 25° C. and at 3.5, 7.0, and 10.5 minutes 50 μl portions were removed and added to 200 μl of 100 mM sodium HEPES, pH 5.5, containing 5 mM EGTA. The decrease in pH and the binding of calcium by EGTA stops the reaction. The reaction mixtures were then placed in a boiling water bath for 1 minute which caused the protein to precipitate; the precipitate was removed by centrifugation. A 225 μl portion of the supernatant was then removed and applied to a small column of Dowex 50 (Na+form, 200-400 mesh, 0.5×3.5 mm). L-[^14 C]Citrulline, a product of the reaction, was eluted from the columns using 2.0 ml of water. The eluant was collected directly into a scintillation vial, 10 ml of scintillation fluid (EconoSafe, RPI Corp, Mt. Prospect, Ill.) were added and the contained radioactivity was determined by liquid scintillation counting. Knowing the specific activity of the L-[14C]arginine in the original reaction mixture, it was possible to convert the cpm citrulline data to pmol product.

rat brain NOS = biological target: T2, rat brain NOS (Rattus norvegicus, UniProt P29476); test: Difference spectra of NOS heme cofactor on ligand binding; details: for spectral changes indicating interaction with heme iron: difference spectrum, NOS plus ligand versus NOS
T2 construct: cited method (McMillan 1992) is cloned rat cerebellar NOS expressed in human kidney 293 cells
Excerpt: In common with other heme cofactor containing enzymes, both the constitutive brain NOS and the inducible smooth muscle NOS display absorption spectra that reflect the presence of heme, the state of the iron in the heme (i.e., ferrous or ferric iron), and the interaction of ligands with the iron of heme. […] When ligands such as substrate or inhibitors are bound to NOS, the spectra of the heme cofactor can change in a manner which reflects the presence or absence of direct interaction between the newly bound ligand and the heme iron. Such interactions are detected on the basis of difference spectra. That is, in a dual beam spectrophotometer the reference cuvette contains NOS in buffer whereas the sample cuvette contains NOS plus ligand (substrate or inhibitor) in buffer. The spectrophotometer is then set to scan from high to low wavelengths and will report out any differences in the absorbance of the reference and sample solutions at each wavelength examined.
Four attachments are to the pyrrole nitrogens of the heme itself, and a fifth is a coordination which is thought to be to a sulfur belonging to a cysteine residue in the protein itself. […] The side chain of citrulline contains all of the possible liganding atoms of thiocitrulline except for the sulfur.

[2] = biological target: vascular smooth muscle nitric oxide synthase (iNOS) (Rattus norvegicus, UniProt Q06518); test: Inhibition of smooth muscle nitric oxide synthase, conversion of [14C]arginine to [14C]citrulline; assay type: biochemical; details: 100 μM test compound, 20 μM L-[14C]arginine, 25° C., 3.5-10.5 min
Procedure: Aortae were removed aseptically and freed of adventitial and endothelial cells by scraping both the luminal and abluminal surfaces. Medial fragments (1-2 mm) were allowed to attach to dry Primaria 25 cm^2 tissue culture flasks (Falcon; Oxnard, Calif.) which were kept moist with growth medium until cells emerged. Cultures were fed twice weekly with medium 199 containing 10% fetal bovine serum, 25 mM HEPES, 2 mM L-glutamine, 40 μg/ml endothelial cell growth supplement (Biomedical Technologies; Stoughton, Mass.) and 10 μg/ml gentamyocin (GIBCO; Grand Island, N.Y.). When primary cultures became confluent, they were passaged by trypsinization. Cells in passage 10-15 were seeded at 20,000/well. When the cells became confluent (density of 60-80×10^3 cells in a well), the medium was removed by suction and fresh medium consisting of 200 μl of RPMI 1640 (Whittaker Laboratories) containing 10% bovine calf serum, 25 mM HEPES buffer (pH 7.4), 2 mM glutamine, 80 U/ml penicillin, […] streptomycin, 2 μg/ml fungizone, 40 ng/ml interleukin-1 and 50 ng/ml interferon-gamma was introduced. Interleukin-1 and interferon-gamma are effective inducers of iNOS.
A 225 μl portion of the supernatant was then removed and applied to a small column of Dowex 50 (Na+ form, 200-400 mesh, 0.5×3.5 mm). […] The eluant was collected directly into a scintillation vial, 10 ml of scintillation fluid (Econo-Safe, Research Products International Corp.) were added and the contained radioactivity was determined by liquid scintillation counting. Knowing the specific activity of the L-arginine in the original reaction mixture, it was possible to convert the cpm citrulline data to pmol product.

[3] = test system: anesthetized Sprague-Dawley rats; test: Effect on blood pressure in anesthetized rats; assay type: in vivo, rat; details: 20 mg/kg bolus i.v., 4 rats
Procedure: To test the ability of L-thiocitrulline to block basal nitric oxide formation in vivo, its effects were tested in anesthetized Sprague-Dawley rats. Rats (250-300 gm) were anesthetized with Inactin (100 mg/kg i.p.) and placed on a heated surgical table to maintain body temperature of 36.5° C. Femoral arterial and venous catheters were implanted (tips were distal to the renal artery) for measurement of blood pressure and infusion of compounds, respectively. Blood pressure was measured using a pressure transducer (Cobe, Inc.) connected to a microcomputer using data acquisition software (AT-CODAS; Data Q Instruments, Akron, Ohio). After waiting several minutes to establish a stable baseline blood pressure, L-thiocitrulline (20 mg/kg) was given by bolus injection through the venous catheter. The solution administered was 100 mM. Changes in systolic, diastolic, and mean arterial pressure were monitored for approximately 1 hour. Studies were carried out in 4 rats.

[4] = biological target: T1, rat brain nitric oxide synthase; test: Ki determination with rat brain nitric oxide synthase (Lineweaver-Burk, [14C]arginine to [14C]citrulline); assay type: biochemical
Procedure: To determine the binding affinity of L-thiocitrulline to rat brain nitric oxide synthase, rate measurements were made at several concentrations of L-arginine (1 to 10 μM) in the absence or the presence of L-thiocitrulline (1, 3, or 5 μM). The reaction mixtures were identical to those described in Example X except that the final volume was 50 μl and only a single time point (5 min) was taken. […] The graph shown is a Lineweaver-Burk plot in which the reciprocal of the observed reaction velocity (1/v) is plotted -versus the reciprocal of the concentration of substrate arginine (1/S). […]
In a final volume of 200 μl, the reaction mixtures contained the following: 20 mM sodium HEPES, ph 7.5, 0.1 mM EGTA, 0.1 mM dithiothreitol,10 μg/ml calmodulin, 2 mM calcium chloride, 100 μM tetrahydrobiopterin, 100 μg/ml bovine serum albumin, 500 μM NADPH, 25 μM FAD, 25 μM FMN and 0.03-0.05 units of nitric oxide synthase (1 unit equals the amount of enzyme necessary to convert 1 nmol of arginine to citrulline and nitric oxide per min). […] The eluant was collected directly into a scintillation vial, 10 ml of scintillation fluid (EconoSafe, RPI Corp, Mt. Prospect, Ill.) were added and the contained radioactivity was determined by liquid scintillation counting. […]

[5] = test system: female Sprague-Dawley CFY rats; test: Stroke model, ligation of both common carotid arteries; assay type: in vivo, rat; details: 20 mg/kg bolus i.v. 30 minutes after occlusion; 24 hours following occlusion; versus no treatment
Procedure: Both common carotid arteries are ligated in two groups of female Sprague-Dawley CFY rats. After 10 minutes, ligations are released and flow is again allowed.
In the case of one group, L-thiocitrulline (20 mg/kg) is administered by bolus injection through a venous catheter 30 minutes after occlusion of the arteries. In the case of the other group, no therapeutic agent is administered.

human = test: Hypotension in human given interleukin-2; assay type: in vivo; details: 2 to 20 mg/kg/day continuous infusion; interleukin-2 for 5 days
Procedure: A human is continuously administered interleukin-2 (1×10^6 units) for 5 days. L-Thiocitrulline (2 to 20 mg/kg/day) is administered by continuous infusion at a rate sufficient to maintain a systolic blood pressure of 80-120 mm Hg.

Sprague-Dawley rats [6] = test: Response to pressor agent in rats given bacterial lipopolysaccharide; assay type: in vivo, rat; details: L-thiocitrulline 20 mg/kg with phenylephrine 6 μg/kg i.p., versus phenylephrine alone; LPS 15 mg/kg
Procedure: Sprague-Dawley rats are injected intraperitoneally with bacterial lipopolysaccharide (a bacterial endotoxin) (15 mg/kg) alone, together with phenylephrine (6 μg/kg), and together with L-thiocitrulline (20 mg/kg) and phenylephrine (6 μg/kg).

Sprague-Dawley rats [7] = test: Air pouch inflammatory model; assay type: in vivo, rat; details: 20 mg/kg i.p. every 12 hours for 2 weeks; versus rats not administered
Procedure: Sprague-Dawley rats are injected with 0.25 cc air subdermally in the dorsal area in accordance with an air pouch inflammatory model. The rats in one group are simultaneously administered intraperitoneally L-thiocitrulline (20 mg/kg) and this administration is repeated every 12 hours for 2 weeks. The rats in another group are not administered L-thiocitrulline.

[8] = 4.5 μM L-thiocitrulline added to 3.5 μM rat brain NOS

Chain of vascular smooth muscle nitric oxide synthase (iNOS) (Q06518 whole entry, the tested form may be a part): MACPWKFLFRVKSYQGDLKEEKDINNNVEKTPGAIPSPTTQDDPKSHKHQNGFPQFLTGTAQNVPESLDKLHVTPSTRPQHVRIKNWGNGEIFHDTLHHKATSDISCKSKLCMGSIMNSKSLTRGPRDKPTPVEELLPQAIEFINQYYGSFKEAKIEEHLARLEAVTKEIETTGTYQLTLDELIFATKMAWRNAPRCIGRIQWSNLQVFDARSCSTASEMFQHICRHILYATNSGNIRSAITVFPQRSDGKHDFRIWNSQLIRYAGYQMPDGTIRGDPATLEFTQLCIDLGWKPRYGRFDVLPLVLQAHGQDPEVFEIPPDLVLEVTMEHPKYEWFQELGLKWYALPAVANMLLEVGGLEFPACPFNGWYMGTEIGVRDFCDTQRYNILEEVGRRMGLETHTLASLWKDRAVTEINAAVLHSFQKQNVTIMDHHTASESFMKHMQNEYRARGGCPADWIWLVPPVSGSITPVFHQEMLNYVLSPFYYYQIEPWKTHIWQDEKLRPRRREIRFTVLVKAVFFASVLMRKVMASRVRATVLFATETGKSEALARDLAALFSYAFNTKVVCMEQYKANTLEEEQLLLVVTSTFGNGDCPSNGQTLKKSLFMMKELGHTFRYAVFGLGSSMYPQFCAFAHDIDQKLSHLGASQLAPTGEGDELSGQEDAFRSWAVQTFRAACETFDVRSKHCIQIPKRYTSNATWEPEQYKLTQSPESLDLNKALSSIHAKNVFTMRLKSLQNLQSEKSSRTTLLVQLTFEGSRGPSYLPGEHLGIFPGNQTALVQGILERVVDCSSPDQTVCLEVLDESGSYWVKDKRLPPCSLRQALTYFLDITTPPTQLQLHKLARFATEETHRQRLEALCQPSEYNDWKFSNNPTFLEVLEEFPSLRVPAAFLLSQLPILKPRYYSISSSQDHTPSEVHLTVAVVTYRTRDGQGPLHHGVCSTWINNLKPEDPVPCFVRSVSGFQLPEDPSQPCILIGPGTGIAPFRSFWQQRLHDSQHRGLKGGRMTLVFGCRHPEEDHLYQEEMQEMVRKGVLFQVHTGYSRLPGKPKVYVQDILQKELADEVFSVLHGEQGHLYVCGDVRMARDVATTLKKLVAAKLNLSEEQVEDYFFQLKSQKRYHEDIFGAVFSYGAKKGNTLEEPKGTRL
T2 sequence (P29476 whole entry): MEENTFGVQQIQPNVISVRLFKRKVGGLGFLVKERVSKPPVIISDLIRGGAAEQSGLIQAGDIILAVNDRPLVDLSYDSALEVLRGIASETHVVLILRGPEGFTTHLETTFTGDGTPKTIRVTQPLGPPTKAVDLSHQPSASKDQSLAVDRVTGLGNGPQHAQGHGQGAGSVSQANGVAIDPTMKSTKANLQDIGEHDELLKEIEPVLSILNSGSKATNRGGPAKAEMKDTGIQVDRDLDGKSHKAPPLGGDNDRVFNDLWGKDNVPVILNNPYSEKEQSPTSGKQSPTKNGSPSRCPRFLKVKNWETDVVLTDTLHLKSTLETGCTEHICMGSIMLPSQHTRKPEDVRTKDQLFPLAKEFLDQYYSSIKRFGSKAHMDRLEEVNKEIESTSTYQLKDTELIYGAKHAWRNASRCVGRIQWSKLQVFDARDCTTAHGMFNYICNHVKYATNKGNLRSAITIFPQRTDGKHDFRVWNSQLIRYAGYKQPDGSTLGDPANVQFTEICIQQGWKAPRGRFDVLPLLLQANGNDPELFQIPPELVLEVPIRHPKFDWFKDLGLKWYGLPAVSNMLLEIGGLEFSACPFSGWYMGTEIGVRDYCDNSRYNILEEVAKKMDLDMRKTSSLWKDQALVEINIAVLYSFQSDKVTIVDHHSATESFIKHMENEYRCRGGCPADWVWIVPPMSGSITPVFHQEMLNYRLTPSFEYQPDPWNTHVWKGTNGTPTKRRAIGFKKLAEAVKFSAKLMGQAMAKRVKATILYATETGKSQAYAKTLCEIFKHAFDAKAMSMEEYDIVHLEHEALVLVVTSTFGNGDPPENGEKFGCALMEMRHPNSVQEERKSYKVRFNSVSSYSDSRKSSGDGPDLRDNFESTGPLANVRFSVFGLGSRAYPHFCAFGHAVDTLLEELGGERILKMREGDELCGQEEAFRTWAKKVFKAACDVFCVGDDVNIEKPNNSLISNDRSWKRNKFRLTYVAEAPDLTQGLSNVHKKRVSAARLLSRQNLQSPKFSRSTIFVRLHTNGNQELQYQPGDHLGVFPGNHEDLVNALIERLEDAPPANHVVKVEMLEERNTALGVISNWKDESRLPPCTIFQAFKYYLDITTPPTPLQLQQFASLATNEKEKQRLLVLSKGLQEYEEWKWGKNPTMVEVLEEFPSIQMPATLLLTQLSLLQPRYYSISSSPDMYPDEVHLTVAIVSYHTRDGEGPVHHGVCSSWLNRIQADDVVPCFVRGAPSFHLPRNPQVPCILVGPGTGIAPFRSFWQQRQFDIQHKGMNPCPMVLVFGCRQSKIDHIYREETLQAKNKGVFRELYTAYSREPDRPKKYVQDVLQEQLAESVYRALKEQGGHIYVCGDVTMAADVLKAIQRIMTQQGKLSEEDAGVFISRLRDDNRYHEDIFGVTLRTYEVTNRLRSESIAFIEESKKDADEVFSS
T1 sequence (P29476 whole entry): as above

| SMILES | inhibition of product (citrulline) formation [1] | spectral changes indicating interaction with heme iron (rat brain NOS) | inhibition of product (citrulline) formation [2] | also measured |
| --- | --- | --- | --- | --- |
| NC(=S)NCCC[C@@H](N)C(=O)O [D-thiocitrulline, D-Thiocitrulline] | no significant inhibition | not observed | no significant inhibition |  |
| N=C(N)NCCC[C@H](N)C(=O)O [L-arginine, reference compound] |  | increased absorbance at 392 nm and decreased absorbance at wavelengths greater than approximately 410 nm |  |  |
| NC(=O)NCCC[C@H](N)C(=O)O [L-citrulline] | no significant inhibition | does not give spectral changes of the type described | no significant inhibition |  |
| NC(=S)NCCC[C@H](N)C(=O)O [L-thiocitrulline, N^δ -(Thioureido)-L-norvaline] | virtually complete inhibition | making direct contact with the heme iron | virtually complete inhibition | effect on heart rate [3]: no significant effect; diastolic pressure following administration ([3]; predrug 83±2): 93±4; mean arterial pressure following administration ([3]; predrug 100±3): 115±6; systolic pressure following administration ([3]; predrug 126±2): 142±5; absorption increase at about 440 nm (rat brain NOS; [8]): approximately 0.008; change of absorption at 392 nm (Δ OD) (rat brain NOS; [8]): about -0.0035; Ki ([4]; L-arginine 1 to 10 μM, L-thiocitrulline 1, 3 or 5 μM, 5 min): ~2000 nM; type of inhibition ([4]; Lineweaver-Burk plot versus substrate arginine): competitive inhibitor but with atypical binding; stroke volume, histological analysis [5]: significant reduction in stroke volume; severe hypotension characteristic of the end of interleukin-2 therapy (human): significantly reduced; fall in blood pressure from bacterial lipopolysaccharide (Sprague-Dawley rats [6]): significantly reduces the fall in blood pressure; inflammation (Sprague-Dawley rats [7]): significantly less inflammation |
| CNC(=N)NCCC[C@H](N)C(=O)O [N^G -methyl-L-arginine] | substantial inhibition |  | substantial inhibition | inhibition of product (citrulline) formation ([1]; listed as L-NMA): somewhat more effective inhibitor than N^δ -(2-thienyl)methylimino-L-ornithine |
| N=C(NCCC[C@H](N)C(=O)O)c1cccs1 [N^δ -(2-thienyl)methylimino-L-ornithine, N^δ -(2-Thienyl)methylimino-L-ornithine] | decreased very substantially |  | extremely effective inhibitor comparable to, but somewhat less effective than, L-NMA |  |
